The record followed here is ChEMBL document CHEMBL1152560, “Substituted 2-arylbenzothiazoles as kinase inhibitors: hit-to-lead optimization” (Bioorg Med Chem, 2009).

For assay [1], the target named is Serine/threonine-protein kinase Chk2 (Homo sapiens) (UniProt O96017). As to the kind of experiment: Residual activity of CHK2 at 1 uM by microplate scintillation counting.
For assay [2], the target named is Dual specificity protein kinase CLK1 (Homo sapiens) (UniProt P49759). Briefly: Residual activity of CLK1 at 1 uM by microplate scintillation counting.
Assay [3] deals with Macrophage colony-stimulating factor 1 receptor (Homo sapiens) (UniProt P07333). As to the kind of experiment: Residual activity of CSF1R at 1 uM by microplate scintillation counting.
The test system of assay [4] is Fibroblast growth factor receptor 1 (Homo sapiens), P11362 [V561M]. Briefly: Residual activity of FGFR1 V561M mutant at 1 uM by microplate scintillation counting.
The target of assay [5] is Mitogen-activated protein kinase 1 (Homo sapiens) (UniProt P28482). Briefly: Residual activity of ERK2 at 0.1 uM by microplate scintillation counting.
The target in assay [6] is T1, G protein-coupled receptor kinase 3 (Homo sapiens) (UniProt P35626).
T1 sequence (whole entry): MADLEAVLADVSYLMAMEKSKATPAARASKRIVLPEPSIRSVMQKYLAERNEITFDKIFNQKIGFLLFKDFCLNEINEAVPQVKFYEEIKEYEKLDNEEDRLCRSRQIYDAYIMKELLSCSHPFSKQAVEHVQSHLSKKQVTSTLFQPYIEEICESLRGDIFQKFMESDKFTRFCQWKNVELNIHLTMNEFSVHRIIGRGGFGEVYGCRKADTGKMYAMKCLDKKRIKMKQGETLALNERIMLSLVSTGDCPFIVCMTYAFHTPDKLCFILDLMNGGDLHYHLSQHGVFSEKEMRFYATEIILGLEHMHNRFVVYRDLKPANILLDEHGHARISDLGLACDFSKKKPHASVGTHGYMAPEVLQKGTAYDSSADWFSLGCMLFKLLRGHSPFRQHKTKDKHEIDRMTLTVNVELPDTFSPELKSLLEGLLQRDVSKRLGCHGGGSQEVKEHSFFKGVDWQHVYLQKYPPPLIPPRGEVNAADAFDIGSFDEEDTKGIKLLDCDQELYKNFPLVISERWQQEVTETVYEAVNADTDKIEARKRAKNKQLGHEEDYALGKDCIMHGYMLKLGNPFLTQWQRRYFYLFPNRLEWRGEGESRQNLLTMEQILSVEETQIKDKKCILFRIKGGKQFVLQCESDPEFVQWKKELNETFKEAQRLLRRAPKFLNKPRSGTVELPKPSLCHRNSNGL
Briefly: Residual activity of GRK3 at 0.1 uM by microplate scintillation counting.

The target of assay [7] is Glycogen synthase kinase-3 alpha (Homo sapiens) (UniProt P49840). Briefly: Residual activity of GSK3alpha at 0.1 uM by microplate scintillation counting.
Assay [8] relates to RAF proto-oncogene serine/threonine-protein kinase (Homo sapiens), P04049 [Y340D,Y341D]. Briefly: Residual activity of RAF1 Y340D/Y341D mutant at 1 uM by microplate scintillation counting.
The target in assay [9] is T2, Serine/threonine-protein kinase Chk1 (Homo sapiens) (UniProt O14757).
T2 sequence (whole entry): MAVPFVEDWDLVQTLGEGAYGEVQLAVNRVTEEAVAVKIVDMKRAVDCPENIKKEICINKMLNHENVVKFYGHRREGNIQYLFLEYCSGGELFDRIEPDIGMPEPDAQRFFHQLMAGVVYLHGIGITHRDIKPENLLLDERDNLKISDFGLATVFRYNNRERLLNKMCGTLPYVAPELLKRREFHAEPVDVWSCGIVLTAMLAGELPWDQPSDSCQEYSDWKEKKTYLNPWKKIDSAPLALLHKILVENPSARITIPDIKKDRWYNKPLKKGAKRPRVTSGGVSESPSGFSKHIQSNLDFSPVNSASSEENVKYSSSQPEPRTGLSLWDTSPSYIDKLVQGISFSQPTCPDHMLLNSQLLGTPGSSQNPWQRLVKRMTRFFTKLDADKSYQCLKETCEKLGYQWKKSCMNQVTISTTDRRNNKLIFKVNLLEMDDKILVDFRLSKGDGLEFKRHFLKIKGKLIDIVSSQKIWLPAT
Briefly: Residual activity of CHK1 at 10 uM by microplate scintillation counting.

In assay [10] the target is Casein kinase I isoform alpha (Homo sapiens) (UniProt P48729). Briefly: Residual activity of CK1alpha1 at 10 uM by microplate scintillation counting.
In assay [11] the target is Serine/threonine-protein kinase PAK 5 (Homo sapiens) (UniProt Q9P286). Briefly: Residual activity of PAK7 at 10 uM by microplate scintillation counting.
Assay [12] concerns the target Calcium/calmodulin-dependent protein kinase type 1D (Homo sapiens) (UniProt Q8IU85). As to the kind of experiment: Residual activity of CAMK1D at 1 uM by microplate scintillation counting.
The target in assay [13] is CDK3/cyclin E (Homo sapiens) (UniProt P24864+O96020+Q00526). Briefly: Residual activity of CDK3/Cyclin E at 0.1 uM by microplate scintillation counting. Format: protein-complex assay.
The target of assay [14] is Serine/threonine-protein kinase Chk2 (Homo sapiens) (UniProt O96017). As to the kind of experiment: Residual activity of CHK2 at 0.1 uM by microplate scintillation counting.
In assay [15] the target is Rho-associated protein kinase 1 (Homo sapiens) (UniProt Q13464). As to the kind of experiment: Residual activity of ROCK1 at 10 uM by microplate scintillation counting.
Assay [16] has as its target Ribosomal protein S6 kinase alpha-1 (Homo sapiens) (UniProt Q15418). Briefly: Residual activity of RPS6KA1 at 10 uM by microplate scintillation counting.
The target in assay [17] is T3, cGMP-dependent protein kinase 2 (Homo sapiens) (UniProt Q13237).
T3 sequence (whole entry): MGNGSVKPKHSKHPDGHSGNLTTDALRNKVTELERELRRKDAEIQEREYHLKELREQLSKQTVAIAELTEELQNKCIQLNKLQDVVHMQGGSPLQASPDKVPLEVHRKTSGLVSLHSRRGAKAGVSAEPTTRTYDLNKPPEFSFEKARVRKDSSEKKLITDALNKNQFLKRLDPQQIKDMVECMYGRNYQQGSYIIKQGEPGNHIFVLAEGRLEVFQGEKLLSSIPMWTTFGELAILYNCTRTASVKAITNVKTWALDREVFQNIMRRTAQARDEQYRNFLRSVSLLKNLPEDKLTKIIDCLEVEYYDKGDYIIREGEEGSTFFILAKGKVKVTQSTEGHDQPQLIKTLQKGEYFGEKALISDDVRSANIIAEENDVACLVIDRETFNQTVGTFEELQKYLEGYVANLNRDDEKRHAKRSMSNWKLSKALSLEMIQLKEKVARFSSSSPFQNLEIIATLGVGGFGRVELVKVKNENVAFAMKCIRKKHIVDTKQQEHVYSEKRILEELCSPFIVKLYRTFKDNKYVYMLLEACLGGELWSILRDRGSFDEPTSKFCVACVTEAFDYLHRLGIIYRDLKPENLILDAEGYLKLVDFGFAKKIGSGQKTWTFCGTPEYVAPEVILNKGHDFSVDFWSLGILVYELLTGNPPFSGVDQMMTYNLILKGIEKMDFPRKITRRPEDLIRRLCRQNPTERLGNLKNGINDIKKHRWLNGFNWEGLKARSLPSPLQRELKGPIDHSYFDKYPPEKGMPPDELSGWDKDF
As to the kind of experiment: Residual activity of PRKG2 at 0.1 uM by microplate scintillation counting.

Chain of Serine/threonine-protein kinase PAK 5 (Homo sapiens) (Q9P286 whole entry, looked up): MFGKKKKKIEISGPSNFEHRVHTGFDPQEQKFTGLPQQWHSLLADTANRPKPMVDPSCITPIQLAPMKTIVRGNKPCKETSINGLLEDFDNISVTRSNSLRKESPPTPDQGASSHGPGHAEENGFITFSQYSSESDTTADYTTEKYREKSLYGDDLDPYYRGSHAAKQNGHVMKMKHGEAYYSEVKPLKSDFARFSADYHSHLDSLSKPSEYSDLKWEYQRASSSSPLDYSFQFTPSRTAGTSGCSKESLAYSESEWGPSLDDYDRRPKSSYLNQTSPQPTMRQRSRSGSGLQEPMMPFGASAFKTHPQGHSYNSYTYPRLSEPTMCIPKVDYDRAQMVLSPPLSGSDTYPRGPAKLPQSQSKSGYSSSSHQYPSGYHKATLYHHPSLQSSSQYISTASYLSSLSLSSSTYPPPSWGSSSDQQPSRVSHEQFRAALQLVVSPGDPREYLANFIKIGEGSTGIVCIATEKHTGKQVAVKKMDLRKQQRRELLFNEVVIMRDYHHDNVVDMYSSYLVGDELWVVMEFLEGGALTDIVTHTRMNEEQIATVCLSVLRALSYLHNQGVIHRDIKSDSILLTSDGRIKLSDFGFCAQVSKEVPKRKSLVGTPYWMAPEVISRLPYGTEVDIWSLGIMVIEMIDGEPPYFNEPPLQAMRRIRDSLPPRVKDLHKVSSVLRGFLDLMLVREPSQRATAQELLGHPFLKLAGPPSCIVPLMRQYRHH
Chain of Macrophage colony-stimulating factor 1 receptor (Homo sapiens) (P07333 whole entry): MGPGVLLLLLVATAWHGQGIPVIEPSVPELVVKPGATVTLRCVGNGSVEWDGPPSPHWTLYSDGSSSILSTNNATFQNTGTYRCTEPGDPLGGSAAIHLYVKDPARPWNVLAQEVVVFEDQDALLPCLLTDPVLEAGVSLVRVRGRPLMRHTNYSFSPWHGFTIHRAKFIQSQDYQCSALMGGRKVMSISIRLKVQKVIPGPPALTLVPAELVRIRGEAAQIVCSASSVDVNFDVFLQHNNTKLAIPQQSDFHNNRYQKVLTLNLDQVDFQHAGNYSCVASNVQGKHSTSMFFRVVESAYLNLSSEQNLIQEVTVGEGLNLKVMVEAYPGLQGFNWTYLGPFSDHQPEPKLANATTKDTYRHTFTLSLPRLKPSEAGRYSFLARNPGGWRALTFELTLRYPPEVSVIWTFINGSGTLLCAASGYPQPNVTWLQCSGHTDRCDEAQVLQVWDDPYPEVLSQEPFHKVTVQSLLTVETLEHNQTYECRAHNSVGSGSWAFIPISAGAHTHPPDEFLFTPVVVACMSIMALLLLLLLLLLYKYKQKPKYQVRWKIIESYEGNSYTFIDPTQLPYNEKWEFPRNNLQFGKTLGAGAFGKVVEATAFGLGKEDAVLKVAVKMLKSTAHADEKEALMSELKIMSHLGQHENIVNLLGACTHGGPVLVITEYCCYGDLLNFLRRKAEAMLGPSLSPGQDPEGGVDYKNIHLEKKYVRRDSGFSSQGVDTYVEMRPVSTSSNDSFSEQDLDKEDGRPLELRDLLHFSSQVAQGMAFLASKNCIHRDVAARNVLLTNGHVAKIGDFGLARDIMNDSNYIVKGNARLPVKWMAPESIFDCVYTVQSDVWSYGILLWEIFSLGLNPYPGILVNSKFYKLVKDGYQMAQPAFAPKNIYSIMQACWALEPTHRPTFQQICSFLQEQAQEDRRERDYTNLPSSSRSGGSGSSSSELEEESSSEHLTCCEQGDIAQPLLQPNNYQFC
Chain of Fibroblast growth factor receptor 1 (Homo sapiens), P11362 [V561M] (P11362 whole entry V561M): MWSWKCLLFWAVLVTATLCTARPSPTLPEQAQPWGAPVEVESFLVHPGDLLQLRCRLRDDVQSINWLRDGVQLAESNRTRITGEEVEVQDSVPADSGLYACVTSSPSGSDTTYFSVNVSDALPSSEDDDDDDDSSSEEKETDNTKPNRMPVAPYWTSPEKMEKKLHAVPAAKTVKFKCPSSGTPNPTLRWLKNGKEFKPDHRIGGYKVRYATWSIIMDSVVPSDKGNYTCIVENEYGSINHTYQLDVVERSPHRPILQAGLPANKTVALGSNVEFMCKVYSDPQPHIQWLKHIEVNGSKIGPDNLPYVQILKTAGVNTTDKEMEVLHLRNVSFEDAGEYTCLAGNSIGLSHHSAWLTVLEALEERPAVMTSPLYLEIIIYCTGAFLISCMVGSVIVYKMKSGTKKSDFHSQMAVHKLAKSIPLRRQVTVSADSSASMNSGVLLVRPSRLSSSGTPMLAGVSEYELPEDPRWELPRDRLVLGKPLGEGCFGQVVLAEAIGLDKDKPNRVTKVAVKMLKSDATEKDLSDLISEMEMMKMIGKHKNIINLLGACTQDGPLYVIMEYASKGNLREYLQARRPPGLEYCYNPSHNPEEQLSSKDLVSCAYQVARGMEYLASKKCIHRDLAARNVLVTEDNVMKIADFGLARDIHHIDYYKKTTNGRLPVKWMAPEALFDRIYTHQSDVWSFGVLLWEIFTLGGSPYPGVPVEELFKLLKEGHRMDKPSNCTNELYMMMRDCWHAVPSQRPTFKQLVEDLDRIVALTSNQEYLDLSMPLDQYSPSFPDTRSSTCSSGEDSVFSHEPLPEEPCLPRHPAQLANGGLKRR
Chain of Mitogen-activated protein kinase 1 (Homo sapiens) (P28482 whole entry): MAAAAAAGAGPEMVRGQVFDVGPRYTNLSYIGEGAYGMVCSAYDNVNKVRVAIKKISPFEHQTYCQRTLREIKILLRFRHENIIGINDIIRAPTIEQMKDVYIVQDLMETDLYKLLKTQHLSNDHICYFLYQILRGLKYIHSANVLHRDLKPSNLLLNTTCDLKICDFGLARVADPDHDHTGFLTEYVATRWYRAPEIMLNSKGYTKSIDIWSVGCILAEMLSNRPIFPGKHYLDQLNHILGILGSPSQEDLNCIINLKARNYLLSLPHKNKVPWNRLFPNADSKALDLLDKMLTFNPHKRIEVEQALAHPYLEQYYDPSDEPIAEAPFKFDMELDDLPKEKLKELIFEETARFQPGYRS
Chain of Serine/threonine-protein kinase Chk2 (Homo sapiens) (O96017 whole entry): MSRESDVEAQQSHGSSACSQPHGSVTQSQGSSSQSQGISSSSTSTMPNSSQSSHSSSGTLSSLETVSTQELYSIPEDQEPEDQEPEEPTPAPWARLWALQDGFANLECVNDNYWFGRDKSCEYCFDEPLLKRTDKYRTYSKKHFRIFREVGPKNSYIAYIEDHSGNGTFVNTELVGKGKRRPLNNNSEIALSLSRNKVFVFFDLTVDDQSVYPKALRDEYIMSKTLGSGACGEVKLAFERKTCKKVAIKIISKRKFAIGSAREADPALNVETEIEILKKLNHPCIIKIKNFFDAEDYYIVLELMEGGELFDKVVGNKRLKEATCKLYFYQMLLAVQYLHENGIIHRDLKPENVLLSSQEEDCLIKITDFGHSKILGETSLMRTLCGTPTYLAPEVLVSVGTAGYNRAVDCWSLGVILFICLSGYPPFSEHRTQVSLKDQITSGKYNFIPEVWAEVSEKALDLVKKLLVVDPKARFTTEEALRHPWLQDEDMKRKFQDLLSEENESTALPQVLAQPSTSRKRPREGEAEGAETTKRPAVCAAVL
Chain of Rho-associated protein kinase 1 (Homo sapiens) (Q13464 2-1354 limits assumed): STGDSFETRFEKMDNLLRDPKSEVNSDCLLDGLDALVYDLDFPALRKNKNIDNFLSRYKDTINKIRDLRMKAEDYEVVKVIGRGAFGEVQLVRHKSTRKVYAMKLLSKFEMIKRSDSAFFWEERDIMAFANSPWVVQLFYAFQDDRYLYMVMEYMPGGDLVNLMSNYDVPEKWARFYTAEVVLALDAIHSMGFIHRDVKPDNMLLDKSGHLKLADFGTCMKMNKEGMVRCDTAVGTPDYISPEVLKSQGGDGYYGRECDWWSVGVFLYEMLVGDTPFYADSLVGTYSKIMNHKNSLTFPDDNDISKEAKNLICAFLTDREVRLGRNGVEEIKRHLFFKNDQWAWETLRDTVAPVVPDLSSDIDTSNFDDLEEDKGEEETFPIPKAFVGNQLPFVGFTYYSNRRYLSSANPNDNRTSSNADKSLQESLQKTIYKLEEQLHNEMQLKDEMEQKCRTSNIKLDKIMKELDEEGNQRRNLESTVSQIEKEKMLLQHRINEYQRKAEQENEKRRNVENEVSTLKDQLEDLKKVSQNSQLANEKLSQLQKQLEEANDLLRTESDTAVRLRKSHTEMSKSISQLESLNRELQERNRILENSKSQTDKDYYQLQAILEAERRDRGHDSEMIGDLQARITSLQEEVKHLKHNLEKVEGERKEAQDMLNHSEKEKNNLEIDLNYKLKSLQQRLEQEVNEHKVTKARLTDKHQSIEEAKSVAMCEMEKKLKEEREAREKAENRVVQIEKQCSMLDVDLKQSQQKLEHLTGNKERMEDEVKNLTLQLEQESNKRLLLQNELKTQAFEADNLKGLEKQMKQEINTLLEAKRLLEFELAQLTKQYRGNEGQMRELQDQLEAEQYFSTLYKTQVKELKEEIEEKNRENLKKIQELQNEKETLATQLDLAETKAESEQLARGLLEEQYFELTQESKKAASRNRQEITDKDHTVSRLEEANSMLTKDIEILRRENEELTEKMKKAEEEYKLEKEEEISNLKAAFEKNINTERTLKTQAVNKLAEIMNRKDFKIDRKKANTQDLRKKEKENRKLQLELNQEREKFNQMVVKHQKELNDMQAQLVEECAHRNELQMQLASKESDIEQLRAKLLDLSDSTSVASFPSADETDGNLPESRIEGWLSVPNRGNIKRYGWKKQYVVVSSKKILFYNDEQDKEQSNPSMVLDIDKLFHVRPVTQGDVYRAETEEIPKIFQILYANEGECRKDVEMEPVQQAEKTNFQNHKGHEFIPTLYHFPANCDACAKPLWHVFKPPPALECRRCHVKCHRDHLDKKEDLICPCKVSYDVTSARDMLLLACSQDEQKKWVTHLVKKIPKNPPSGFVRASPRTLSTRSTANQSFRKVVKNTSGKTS

For `COc1cc2c(Oc3ccc(-c4nc5ccccc5s4)cc3)ncnc2cc1OCCCN1CCN(C)CC1`, the residual activity in assay [1] is 54%; in assay [2], 99%; in [3], 118%; in [4] it was 103%; in assay [5], 85%; in assay [6], 94%. In addition, the residual activity in assay [7] worked out at 103%; in [8], 97%; in [9], 131%; in assay [10], 155%; in assay [11] it was 45%; in assay [12], 87%. For the same molecule, the residual activity in [13] was 86%; in [14], 91%; in assay [15] it was 68%; in assay [16] it was 206%; in assay [17] it was 87%.

Consider `COc1cc2c(Oc3ccc(-c4nc5ccccc5s4)cc3)ncnc2cc1OCCCN1CCCC1`, for which the residual activity in assay [1] was 75%; in assay [2], 107%; in assay [3], 112%; in assay [4], 102%; in assay [5], 78%; in assay [6], 86%. Moreover, the residual activity is 95% in assay [7]; 90% in assay [8]; 101% in [9]; 139% in [10]; 84% in assay [11]; 92% in assay [12]. The residual activity in [13] came to 90%; in [14], 88%; in [15], 81%; in assay [16], 124%; in assay [17] it was 84%.

Consider `COc1cc2c(Oc3ccc(-c4nc5ccccc5s4)cc3F)ncnc2cc1OCCCN1CCN(C)CC1`, for which the residual activity came to 51% in [1]; 104% in assay [2]; 105% in assay [3]; 93% in assay [4]; 96% in [5]; 95% in assay [6]. Further, the residual activity was 104% in assay [7]; 104% in assay [8]; 142% in assay [9]; 144% in [10]; 49% in assay [11]; 91% in [12]. The residual activity was determined as 98% in assay [13]; 92% in assay [14]; 73% in assay [15]; 222% in assay [16]; 86% in assay [17].
